According to patent US12516289B2, “Methods of producing T memory stem cell populations” (The United States of America, as represented by the …, priority 2012, dated 2026):

System: CD45RO−CD62L+ naïve CD8+ T cells
Assay: Activation of naïve CD8+ T cells in the presence of the GSK-3β inhibitor, phenotypic analysis
Format: cell-based, human
Description: Candidate human TSCM cells were generated by activating CD45RO^−CD62L^+ naïve CD8^+ T cells in the presence of the GSK-3β inhibitor TWS119. […] To determine whether the CD45RO^−CD62L^+ T cells generated in the presence of TWS119 were truly naïve cells or had acquired memory traits, phenotypic analysis was performed using established markers of T cell activation and differentiation (Appay et al., Cytometry A 73: 975-983 (2008)).

Nc1cccc(-c2cc3c(Oc4cccc(O)c4)ncnc3[nH]2)c1 [TWS119, 3-[[6-(3-aminophenyl)-7H-pyrrolo[2,3-d]pyrimidin-4-yl]oxy]phenol]
phenotype of T cells after culture (CD45RO/CD62L) (naïve CD8+ T cells activated in presence of TWS119, after 2 weeks): majority of T cells cultured with TWS119 retained a CD45RO^−CD62L^+ naïve-like phenotype
expression of CD95 and IL-2Rβ by TWS119-generated naïve-like T cells (phenotypic analysis, compared with TN and memory T cells): expressed levels of CD95 and IL-2Rβ similar to those observed in memory T cells
